Laboratory results from patent US11737462B2, “Methods for modulating plant response to environmentally-induced stress” (Howard University, priority 2012, dated 2023).

What was measured:
RACK1A = RACK1A (Arabidopsis thaliana, UniProt O24456); assay: in-vitro assay of tyrosine phosphorylation (Y248) based homodimerization of RACK1A; assay type: biochemical
Text: A crystal structure of Arabidopsis thaliana RACK1 protein has been reported. Deducing the crystal structure of the Arabidopsis RACK1A protein highlighted the potential functional residues of the protein. Noteworthy in the structure was the functionally conserved tyrosine phosphorylation residue (Y248) that has been implicated in RACK1A function. Therefore, it was undertaken to identify a chemical inhibitor of Y248 phosphorylation that would serve as a potential “anti-stress” compound in countering environmental stresses in plants. In order to identify small compounds occupying the Y248 pocket, docking simulations with a subset of 30,000 compounds were performed. Based on ranking with an energy cut-off of 25 kcal/mol, 3,011 compounds were then selected. Upon further re-ranking, 46 lead compounds were identified and 11 compounds were screened for their efficacy in an in-vitro assay. […] Those six compounds include SD-29, SD-29-9, SD-29-11, SD-29-22, SD-34, and SD-125.

Arabidopsis plants [1] = assay: salt stress (150 mM salt) in Arabidopsis plants; assay type: in vivo, Arabidopsis thaliana; details: 100 μM compound plus 150 mM salt, two weeks, 22° C., vs DMSO plus salt
Description: In the examples described herein, the test compounds (e.g., SD-29 or analogs thereof) were dissolved in dimethyl sulfoxide (DMSO) to provide a 20 mM concentration. Micromolar concentrations were then prepared as needed by addition to the water incubation media. Unless stated otherwise, the experimental plants were incubated with the roots immersed in the water containing the compound. The control plants received only DMSO in the same amount as that of the compound. In the first experiment, Arabidopsis plants were treated with 150 mM salt for two weeks. One plant in each group was treated with 100 μM SD-29 plus 150 mM salt and the other plant in each group was treated with DMSO plus 150 mM salt. […] The plants were treated with the indicated treatment twice during the experiment.

bean plants = assay: salt-induced stress in bean plants; assay type: in vivo; details: 60 μM compound plus 250 mM NaCl, 96 hours, about 24° C.
Description: In the examples described herein, the test compounds (e.g., SD-29 or analogs thereof) were dissolved in dimethyl sulfoxide (DMSO) to provide a 20 mM concentration. Micromolar concentrations were then prepared as needed by addition to the water incubation media. Unless stated otherwise, the experimental plants were incubated with the roots immersed in the water containing the compound. The control plants received only DMSO in the same amount as that of the compound. Salt-induced stress was evaluated with bean plants at room temperature (about 24° C.) for 96 hours. All plants received sufficient incubation media to last the seven days. Plant A received 60 μM SD-29 plus 250 mM NaCl and plant B received 250 mM NaCl in the incubation medium.

pepper plants = assay: salt-induced stress in pepper plants; assay type: in vivo; details: 60 μM compound plus 250 mM NaCl, 48 hours, about 24° C.
Description: In the examples described herein, the test compounds (e.g., SD-29 or analogs thereof) were dissolved in dimethyl sulfoxide (DMSO) to provide a 20 mM concentration. Micromolar concentrations were then prepared as needed by addition to the water incubation media. Unless stated otherwise, the experimental plants were incubated with the roots immersed in the water containing the compound. The control plants received only DMSO in the same amount as that of the compound.
Salt-induced stress was evaluated with pepper plants at room temperature (about 24° C.) for 48 hours. All plants received sufficient incubation media to last the seven days. Plant A received 60 μM SD-29 plus 250 mM NaCl and plant B received 250 mM NaCl in the incubation medium with DMSO.

Cu/Zn SOD = assay: native gel analysis of superoxide dismutase activity in pepper leaf lysate; assay type: in vivo; details: 60 μM compound plus 250 mM NaCl, vs DMSO treated plants
Description: Native gel analysis was performed on a lysate prepared from the pepper plant leaves in FIG. 8. The gel is stained for detecting enzymatic activity of different isoforms of superoxide dismutase—key enzymes that detoxify the reactive oxygen species which usually develop during the stress conditions. […] Therefore, it appears that SD-29 may help detoxify the cellular reactive oxygen species generated during the salt stress conditions.

rice RACK1A = target: T1, rice RACK1A (Oryza sativa subsp. japonica, UniProt P49027); assay: western blot with anti-pY248 of rice leaf lysates under salt stress; assay type: in vivo; details: 60 μM compound and 250 mM NaCl, 75 μg protein per lane
T1 construct: from tissue; host or cells: rice leaves
T1 sequence (P49027 whole entry): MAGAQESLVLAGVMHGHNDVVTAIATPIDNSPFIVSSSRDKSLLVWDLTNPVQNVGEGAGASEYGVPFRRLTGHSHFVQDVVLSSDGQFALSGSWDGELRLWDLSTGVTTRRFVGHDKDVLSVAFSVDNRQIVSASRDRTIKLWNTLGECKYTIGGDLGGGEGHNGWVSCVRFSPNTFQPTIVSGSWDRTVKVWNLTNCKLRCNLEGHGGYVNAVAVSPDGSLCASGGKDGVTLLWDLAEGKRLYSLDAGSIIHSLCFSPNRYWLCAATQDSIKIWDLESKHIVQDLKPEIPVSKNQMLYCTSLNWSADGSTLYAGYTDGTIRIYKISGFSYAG
Description: The rice leaves were also analyzed by Western blot. Lysates were prepared from the leaves and western blot analysis was carried out using standard methods. 75 μg protein were loaded per lane. The membrane containing transferred proteins were probed with anti-pY248, which is an antibody raised to specifically detect phosphorylated tyrosine at residue 248 of RACK1A.

Arabidopsis plants [2] = assay: drought-induced stress (sorbitol) in Arabidopsis plants; assay type: in vivo, Arabidopsis thaliana; details: 150 mM sorbitol plus 60 μM compound, about three weeks, room temperature
Description: In the examples described herein, the test compounds (e.g., SD-29 or analogs thereof) were dissolved in dimethyl sulfoxide (DMSO) to provide a 20 mM concentration. Micromolar concentrations were then prepared as needed by addition to the water incubation media. Unless stated otherwise, the experimental plants were incubated with the roots immersed in the water containing the compound. The control plants received only DMSO in the same amount as that of the compound. The effect of SD-29 on modulating drought-induced stress was evaluated with Arabidopsis plants for about three weeks at room temperature. Sorbitol was used to imitate drought conditions. All plants received sufficient incubation media to last the seven days. Plant A was treated with DMSO (in a volume equal to the volume of SD-29 used for Plants B and C), plant B was treated with 150 mM sorbitol plus 60 μM SD-29, plant C was treated with 60 μM SD-29, and plant D was treated with 150 mM sorbitol in the incubation medium.

[3] = test system: salt glands (trichome) on Arabidopsis leaves; assay: sodium green dye staining of Arabidopsis leaves (sodium uptake); assay type: in vivo, Arabidopsis thaliana; details: 1 week old plants, 100 mM salt, 60 μM compound, three hours
Description: 1 week old Arabidopsis plants were treated with and without 100 mM salt, as well as with and without the presence of 60 μM SD-29, in incubation medium for three hours. The leaves were stained with sodium green dye (5 μM) according to the manufacturer's protocol (Invitrogen, Calif.) and analyzed by fluorescent microscopy to determine if the plants take up sodium from the incubation medium. The dye fluoresces in the presence of sodium ion.

Sequence of RACK1A (O24456 whole entry): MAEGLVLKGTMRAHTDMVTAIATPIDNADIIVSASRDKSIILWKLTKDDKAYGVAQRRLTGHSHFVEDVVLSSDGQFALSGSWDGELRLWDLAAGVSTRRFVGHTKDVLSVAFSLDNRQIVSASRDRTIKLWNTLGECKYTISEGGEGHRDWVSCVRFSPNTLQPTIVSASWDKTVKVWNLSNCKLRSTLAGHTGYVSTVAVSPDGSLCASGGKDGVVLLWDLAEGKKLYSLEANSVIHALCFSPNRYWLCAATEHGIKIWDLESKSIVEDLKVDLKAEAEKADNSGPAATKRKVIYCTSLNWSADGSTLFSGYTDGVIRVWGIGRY

Nn1c(S)nnc1-c1ccc(F)cc1 [SD-29]
IC50 (RACK1A; data not shown): 12.5 µM
tyrosine phosphorylation (Y248) based homodimerization of RACK1A proteins (RACK1A; in-vitro assay): prevent tyrosine phosphorylation (Y248) based homodimerization of RACK1A proteins
salt stress induced chlorosis of Arabidopsis plants (Arabidopsis plants [1]): effective to allow the Arabidopsis plants to withstand the salt stress induced chlorosis
bean plant condition in high salt (bean plants): thrived (did not wilt) in the high salt conditions
pepper plant condition in high salt (pepper plants): thrived in the high salt conditions (with no chlorosis)
cytoplasmic and chloroplastic Cu/Zn SOD enzyme activities in pepper leaves (Cu/Zn SOD): caused upregulation of both the cytoplasmic (lower band) and chloroplastic (upper band) Cu/Zn SOD enzyme activities
rice RACK1A tyrosine (Y248) phosphorylation under salt stress (rice RACK1A): significantly inhibited rice RACK1A tyrosine phosphorylation
plant performance under drought-imitating sorbitol (Arabidopsis plants [2]): performed much better than the plant treated with sorbitol alone
salt uptake through the salt glands (sodium green fluorescence) [3]: prevents salt uptake through the salt glands (trichome)
